# System: Bacillus anthracis Spores
# Type: cell-based, Bacillus anthracis (Ames strain)
compound,measurement,value
"O=S(=O)([O-])OOS(=O)(=O)[O-].[Na+].[Na+] [Klozur ™, sodium persulfate]","Decontamination effectiveness against B. anthracis, topsoil compared with AZTD",not significantly different
same,Inactivation of B. anthracis,complete inactivation
